Results from patent US20250177383A1, “DI-CYCLOPROPYL BASED IL-17A MODULATORS AND USES THEREOF” (DICE ALPHA, INC., priority 2022, published 2025).

molecular target: T1, IL-17A/A (Homo sapiens, UniProt Q16552); assay: IL-17A/A HEK-Blue Cell Assay; type: cell-based; settings: HEK-Blue IL-17 reporter cells, IL-17A/A stimulation, 20 hours, SEAP readout; read-out: IL17 AA HEK-5 pIC50 (converted)
T1 sequence (Q16552 24-155): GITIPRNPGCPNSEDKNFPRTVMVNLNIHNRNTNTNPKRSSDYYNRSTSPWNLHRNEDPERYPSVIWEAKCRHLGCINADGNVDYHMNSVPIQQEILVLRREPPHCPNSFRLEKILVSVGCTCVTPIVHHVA
Method in brief: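 Cells co-expressing IL-17RA, IL-17RC and Act1 received titrated compound, top final 10 uM in 0.1% DMSO, immediately before IL-17A/A stimulation.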

CCn1nccc1C(=O)N[C@H](C(=O)Nc1ccc([C@H](C)[C@@H](NC(=O)N(C)C2CC2)C(=O)N2CCN(C)CC2)cc1F)C(C1CC1)C1CC1 [Compound 225] and CCC(=O)N[C@@H](C(=O)N1CCN(C)[C@H](C)C1)[C@@H](C)c1ccc(NC(=O)[C@@H](NC(=O)c2ccnn2CC(F)F)C(C2CC2)C2CC2)c(F)c1 [Compound 232] cannot be ordered by IC50: under 10 nM for the first, under 10 nM for the second.

In the case of CCc1nonc1C(=O)N[C@H](C(=O)Nc1ccc([C@H](C)[C@@H](NC(C)=O)C(=O)N2CCN(C)[C@H](C)C2)cc1F)C(C1CC1)C1CC1 [Compound 214], the IC50 is reported as under 10 nM.

system: not listed separately; assay: Microsomal stability, human liver microsomes; type: in vitro ADME; settings: human liver microsomes 0.5 mg protein/mL, 1 μM test compound, NADPH, 37° C., 60 min; read-out: HLM Clint
Protocol: (§1) Test compound and control working solution preparation. 5 μL of a compound and control stock solution (10 mM in dimethyl sulfoxide (DMSO)) were diluted with 495 μL of acetonitrile (ACN).
(§2) NADPH cofactor preparation. The appropriate amount of NADPH powder was weighed and diluted into a 10 mM MgCl2 solution (working solution concentration: 10 mM; final concentration in reaction system: 1 mM). Materials: NADPH powder: β-Nicotinamide adenine dinucleotide phosphate reduced form, tetrasodium salt; NADPHA4Na (Vendor: Chem-Impex International, Cat. No. 00616).
(§3) Liver Microsome Preparation. The appropriate concentrations of microsome working solutions were prepared in 100 mM potassium phosphate buffer. Materials: Human Liver Microsomes (HLM) Cat No. 452117 and Lot No. 38295 (Corning); SD Rat Liver Microsomes (RLM) Cat No. R1000 and Lot No. 1910100 (Xenotech).
(§4) Stop solution preparation. Cold (4° C.) acetonitrile (ACN) containing 200 ng/mL tolbutamide and 200 ng/mL labetalol as internal standards (IS) were used as the stop solution.
(§5) Assay Procedure. Empty incubation plates (T60 and NCF60) were warmed for 10 mins prior to use. Liver microsomes were diluted to 0.56 mg/mL in 100 mM phosphate buffer. 445 uL microsome working solutions (0.56 mg/mL) were transferred into pre-warmed ‘Incubation’ plates T60 and NCF60, Then ‘Incubation’ plates T60 and NCF60 were pre-incubated for 10 min at 37° C. with constant shaking. 54 μL liver microsomes were transferred to the blank plate, then 6 μL NAPDH cofactor were added to the blank plate, followed by the addition 180 μL quenching solution to the blank plate. 5 μL compound working solution (100 μM) were added into ‘incubation’ plates (T60 and NCF60) containing microsomes and mixed thoroughly 3 times. To the NCF60 plate 50 μL of buffer were added and mixed 3 times thoroughly. Start timing; plate was incubated at 37° C. for 60 min while shaking. In ‘Quenching’ plate TO, were added 180 μL quenching solution and 6 μL NAPDH cofactor. Plate is chilled to prevent evaporation. The T60 plate, was mixed 3 times thoroughly, and immediately 54 μL of the mixture was removed for the 0-min time point to ‘Quenching’ plate. Then 44 μL NAPDH cofactor was added to the incubation plate (T60). Start timing; plate was incubated at 37° C. for 60 min while shaking. Final concentrations of each component in the incubation media: Microsome (0.5 mg protein/mL); Test compound (1 μM); control compound ([…]); ACN (0.99%); and DMSO (0.01%). At 5, 15, 30, 45, and 60 min, 180 μL quenching solution was added to ‘Quenching’ plates, mixed once, and serially transferred 60 μL of sample from T60 plate per time point to ‘Quenching’ plates. For the NCF60 plate, mix once and 60 μL of sample was transferred from the NCF60 incubation to ‘Quenching’ plate containing quenching solution at the 60-min time point (Start time 1:00:00 and End Time 0:00:00).
(§6) All sampling plates were shaken for 10 min, then centrifuged at 4000 rpm for 20 minutes at 4° C. 80 μL of supernatant were transferred into 240 μL HPLC water, and mixed by plate shaker for 10 min. Each bioanalysis plate was sealed and shaken for 10 minutes prior to LC-MS/MS analysis.

Compared with CCC(=O)N[C@@H](C(=O)N1CCN(C)[C@H](C)C1)[C@@H](C)c1ccc(NC(=O)[C@@H](NC(=O)C2(F)CC2)[C@H]2CC[C@H](C)CC2)c(F)c1 [H, reference compound], CCC(=O)N[C@@H](C(=O)N1CCN(C)[C@H](C)C1)[C@@H](C)c1ccc(NC(=O)[C@@H](NC(=O)c2ccnn2CC)[C@H]2CC[C@H](C)CC2)c(F)c1 [G, reference compound] is higher in microsomal CLint at 1 μM: 50 to 150 µL/min/mg for the first, over 150 µL/min/mg for the second.

Compared with CCn1nccc1C(=O)N[C@H](C(=O)Nc1ccc([C@H](C)[C@@H](NC(=O)N(C)C2CC2)C(=O)N2CCN(C)CC2)cc1F)C(C1CC1)C1CC1 [Compound 225], CCC(=O)N[C@@H](C(=O)N1CCN(C)[C@H](C)C1)[C@@H](C)c1ccc(NC(=O)[C@@H](NC(=O)c2ccnn2CC(F)F)C(C2CC2)C2CC2)c(F)c1 [Compound 232] is lower in microsomal CLint at 1 μM: 50 to 150 µL/min/mg for the first, under 50 µL/min/mg for the second.

In the case of CCc1nonc1C(=O)N[C@H](C(=O)Nc1ccc([C@H](C)[C@@H](NC(C)=O)C(=O)N2CCN(C)[C@H](C)C2)cc1F)C(C1CC1)C1CC1 [Compound 214], the microsomal CLint at 1 μM is reported as 50 to 150 µL/min/mg.

system: not listed separately; assay: Microsomal stability, rat liver microsomes; type: in vitro ADME; settings: SD rat liver microsomes 0.5 mg protein/mL, 1 μM test compound, NADPH, 37° C., 60 min; read-out: RLM Clint
Protocol: as §1, §2, §3, §4, §5, §6

First: CCC(=O)N[C@@H](C(=O)N1CCN(C)[C@H](C)C1)[C@@H](C)c1ccc(NC(=O)[C@@H](NC(=O)C2(F)CC2)[C@H]2CC[C@H](C)CC2)c(F)c1 [H, reference compound]
Second: CCC(=O)N[C@@H](C(=O)N1CCN(C)[C@H](C)C1)[C@@H](C)c1ccc(NC(=O)[C@@H](NC(=O)c2ccnn2CC)[C@H]2CC[C@H](C)CC2)c(F)c1 [G, reference compound]
The microsomal CLint at 1 μM of the first is lower: 9.6 to 20 µL/min/mg for the first, over 20 µL/min/mg for the second.

First: CCn1nccc1C(=O)N[C@H](C(=O)Nc1ccc([C@H](C)[C@@H](NC(=O)N(C)C2CC2)C(=O)N2CCN(C)CC2)cc1F)C(C1CC1)C1CC1 [Compound 225]
Second: CCC(=O)N[C@@H](C(=O)N1CCN(C)[C@H](C)C1)[C@@H](C)c1ccc(NC(=O)[C@@H](NC(=O)c2ccnn2CC(F)F)C(C2CC2)C2CC2)c(F)c1 [Compound 232]
The microsomal CLint at 1 μM of the first is higher: over 20 µL/min/mg for the first, under 9.6 µL/min/mg for the second.

In the case of CCc1nonc1C(=O)N[C@H](C(=O)Nc1ccc([C@H](C)[C@@H](NC(C)=O)C(=O)N2CCN(C)[C@H](C)C2)cc1F)C(C1CC1)C1CC1 [Compound 214], the microsomal CLint at 1 μM is reported as 9.6 to 20 µL/min/mg.

system: not listed separately; assay: Rat pharmacokinetics, PO; type: in vivo; settings: male rat, PO 5 mg/kg oral gavage, plasma, Linear/log trapezoidal; read-out: Rat PO AUC0-t
Protocol: Formulations for PO. An appropriate amount of the test article is weighed and mixed with the appropriate volume of vehicle to get a clear solution or a uniform suspension, vortexing or sonication in water bath may used. Animals are dosed within four hours after the formulation is prepared.
Formulation samples are removed from each of the formulation solutions or suspensions, transferred into 1.5 mL of polypropylene microcentrifuge tubes and run dose validated by LC/UV or LC-MS/MS.
Dose administration. For PO dosing, the dose formulation is administered via oral gavage.
Blood Collection. Each blood collection (about 0.2 mL per time point) is performed from carotid artery cannula (CAC) of each animal into a pre-chilled commercial EDTA-K2 tubes as anti-coagulant, then placed on wet ice until centrifugation. Blood samples are processed for plasma by centrifugation at approximately 4° C., 3,200 g for 10 min. Plasma is collected respectively and a certain amount of plasma from rat is transferred into pre-labeled 96 well plate or polypropylene tubes, quick frozen over dry ice and kept at −60° C. or lower until LC-MS/MS analysis. After terminal collection, all plasmas are stored at approximately −80° C. freezer until final analysis.
Plasma concentration versus time data are plotted in graph and analyzed by non-compartmental approaches using the Phoenix WinNonlin 6.3 software program. Trapezoids: Before TMax (Linear); After Tmax (Log). Partial Area Interpolations: Before TMax (Linear); After Tmax (Log).

First: CCC(=O)N[C@@H](C(=O)N1CCN(C)[C@H](C)C1)[C@@H](C)c1ccc(NC(=O)[C@@H](NC(=O)C2(F)CC2)[C@H]2CC[C@H](C)CC2)c(F)c1 [H, reference compound]
Second: CCC(=O)N[C@@H](C(=O)N1CCN(C)[C@H](C)C1)[C@@H](C)c1ccc(NC(=O)[C@@H](NC(=O)c2ccnn2CC)[C@H]2CC[C@H](C)CC2)c(F)c1 [G, reference compound]
The AUC(0-t) of the first is lower: under 500 ng·h/mL for the first, 500 to 1000 ng·h/mL for the second.

CCn1nccc1C(=O)N[C@H](C(=O)Nc1ccc([C@H](C)[C@@H](NC(=O)N(C)C2CC2)C(=O)N2CCN(C)CC2)cc1F)C(C1CC1)C1CC1 [Compound 225] and CCC(=O)N[C@@H](C(=O)N1CCN(C)[C@H](C)C1)[C@@H](C)c1ccc(NC(=O)[C@@H](NC(=O)c2ccnn2CC(F)F)C(C2CC2)C2CC2)c(F)c1 [Compound 232] cannot be ordered by AUC(0-t): under 500 ng·h/mL for the first, under 500 ng·h/mL for the second.

For CCc1nonc1C(=O)N[C@H](C(=O)Nc1ccc([C@H](C)[C@@H](NC(C)=O)C(=O)N2CCN(C)[C@H](C)C2)cc1F)C(C1CC1)C1CC1 [Compound 214], the AUC(0-t) was under 500 ng·h/mL.
